According to ChEMBL document CHEMBL3885861, “Open TG-GATES”:

Species: Rattus norvegicus
Assay: Open TG-GATES - Regimen: Single
Assay type: toxicity, organism-based, Sprague-Dawley
Parameters: regimen Single, gender Male, age 6 weeks
Conditions: in vivo, po, 100 mg/kg, route gavage, dose level High; for Bas / Eos / Hb / Ht / Lym / MCH / MCHC / MCV / Mono / Neu / Plat / RBC / Ret / WBC: tissue Blood; for KIDNEY_L / KIDNEY_R / KIDNEY_TOTAL: tissue Kidney; for LIVER: tissue Liver; for A/G / ALP / ALT / AST / BUN / CRE / Ca / Cl / DBIL / GLC / IP / K / LDH / Na / PL / RALB / TBIL / TC / TG / TP / gamma-GTP: tissue Plasma

SMILES: Cc1ccc2cc3c(ccc4ccccc43)c3c2c1CC3 [3-METHYLCHOLANTHRENE]
- TERMINAL_BW (3 h): 211 g
- Bas (3 h): 0%
- Eos (3 h): 1%
- Hb (3 h): 12.4 g/dL
- Ht (3 h): 38.7%
- Lym (3 h): 74.4%
- MCH (3 h): 20.1 pg
- MCHC (3 h): 32.2%
- MCV (3 h): 62.6 fL
- Mono (3 h): 3.2%
- Neu (3 h): 21%
- Plat (3 h): 125.2 x10_4/uL
- RBC (3 h): 618.4 x10_4/ul
- Ret (3 h): 9.2%
- WBC (3 h): 117.6 x10_2/uL
- KIDNEY_L (3 h): 0.9 g
- KIDNEY_R (3 h): 0.9 g
- KIDNEY_TOTAL (3 h): 1.8 g
- LIVER (3 h): 9.5 g
- A/G (3 h): 1
- ALP (3 h): 1507 IU/L
- ALT (3 h): 44.4 IU/L
- AST (3 h): 77.4 IU/L
- BUN (3 h): 12.9 mg/dL
- CRE (3 h): 0.1 mg/dL
- Ca (3 h): 10.8 mg/dL
- Cl (3 h): 101.9 meq/L
- DBIL (3 h): 0.002 mg/dL
- GLC (3 h): 180.4 mg/dL
- IP (3 h): 8.7 mg/dL
- K (3 h): 4.3 meq/L
- LDH (3 h): 276.8 IU/L
- Na (3 h): 139.4 meq/L
- PL (3 h): 178.2 mg/dL
- RALB (3 h): 2.9 g/dL
- TBIL (3 h): 0.012 mg/dL
- TC (3 h): 89.8 mg/dL
- TG (3 h): 164.2 mg/dL
- TP (3 h): 5.7 g/dL
- gamma-GTP (3 h): 0.7 IU/L
- TERMINAL_BW (6 h): 206.7 g
- Bas (6 h): 0%
- Eos (6 h): 0.2%
- Hb (6 h): 12.6 g/dL
- Ht (6 h): 38.9%
- Lym (6 h): 75.6%
- MCH (6 h): 20.6 pg
- MCHC (6 h): 32.4%
- MCV (6 h): 63.6 fL
- Mono (6 h): 4.2%
- Neu (6 h): 18.8%
- Plat (6 h): 136.5 x10_4/uL
- RBC (6 h): 612 x10_4/ul
- Ret (6 h): 9%
- WBC (6 h): 135.9 x10_2/uL
- KIDNEY_L (6 h): 0.9 g
- KIDNEY_R (6 h): 0.9 g
- KIDNEY_TOTAL (6 h): 1.7 g
- LIVER (6 h): 8.9 g
- A/G (6 h): 1
- ALP (6 h): 1605.4 IU/L
- ALT (6 h): 37.2 IU/L
- AST (6 h): 71.4 IU/L
- BUN (6 h): 8.3 mg/dL
- CRE (6 h): 0.1 mg/dL
- Ca (6 h): 10.6 mg/dL
- Cl (6 h): 104.8 meq/L
- DBIL (6 h): 0.002 mg/dL
- GLC (6 h): 175.4 mg/dL
- IP (6 h): 9.2 mg/dL
- K (6 h): 4.3 meq/L
- LDH (6 h): 203.2 IU/L
- Na (6 h): 141 meq/L
- PL (6 h): 165.6 mg/dL
- RALB (6 h): 2.9 g/dL
- TBIL (6 h): 0.022 mg/dL
- TC (6 h): 85.6 mg/dL
- TG (6 h): 83.5 mg/dL
- TP (6 h): 5.7 g/dL
- gamma-GTP (6 h): 0.8 IU/L
- TERMINAL_BW (9 h): 206.7 g
- Bas (9 h): 0%
- Eos (9 h): 0.6%
- Hb (9 h): 12.7 g/dL
- Ht (9 h): 39%
- Lym (9 h): 75.8%
- MCH (9 h): 20.6 pg
- MCHC (9 h): 32.4%
- MCV (9 h): 63.6 fL
- Mono (9 h): 3.4%
- Neu (9 h): 19.4%
- Plat (9 h): 125.7 x10_4/uL
- RBC (9 h): 613.8 x10_4/ul
- Ret (9 h): 8.6%
- WBC (9 h): 108.2 x10_2/uL
- KIDNEY_L (9 h): 0.9 g
- KIDNEY_R (9 h): 0.9 g
- KIDNEY_TOTAL (9 h): 1.8 g
- LIVER (9 h): 9 g
- A/G (9 h): 1
- ALP (9 h): 1396.4 IU/L
- ALT (9 h): 34.4 IU/L
- AST (9 h): 70.4 IU/L
- BUN (9 h): 9.8 mg/dL
- CRE (9 h): 0.1 mg/dL
- Ca (9 h): 10.6 mg/dL
- Cl (9 h): 104 meq/L
- DBIL (9 h): 0.002 mg/dL
- GLC (9 h): 179.4 mg/dL
- IP (9 h): 10.6 mg/dL
- K (9 h): 4.6 meq/L
- LDH (9 h): 248.8 IU/L
- Na (9 h): 142.5 meq/L
- PL (9 h): 150.4 mg/dL
- RALB (9 h): 2.8 g/dL
- TBIL (9 h): 0.004 mg/dL
- TC (9 h): 79.2 mg/dL
- TG (9 h): 95 mg/dL
- TP (9 h): 5.6 g/dL
- gamma-GTP (9 h): 0.6 IU/L
- TERMINAL_BW (24 h): 218 g
- Bas (24 h): 0%
- Eos (24 h): 0%
- Hb (24 h): 12.8 g/dL
- Ht (24 h): 39.2%
- Lym (24 h): 81.2%
- MCH (24 h): 20 pg
- MCHC (24 h): 32.6%
- MCV (24 h): 61.6 fL
- Mono (24 h): 3%
- Neu (24 h): 14.6%
- Plat (24 h): 124.3 x10_4/uL
- RBC (24 h): 636.8 x10_4/ul
- Ret (24 h): 8.1%
- WBC (24 h): 127.1 x10_2/uL
- KIDNEY_L (24 h): 0.9 g
- KIDNEY_R (24 h): 0.9 g
- KIDNEY_TOTAL (24 h): 1.9 g
- LIVER (24 h): 11.2 g
- A/G (24 h): 1
- ALP (24 h): 1595.4 IU/L
- ALT (24 h): 38.6 IU/L
- AST (24 h): 69.4 IU/L
- BUN (24 h): 16.7 mg/dL
- CRE (24 h): 0.2 mg/dL
- Ca (24 h): 11 mg/dL
- Cl (24 h): 103.1 meq/L
- DBIL (24 h): 0.002 mg/dL
- GLC (24 h): 171.4 mg/dL
- IP (24 h): 7.4 mg/dL
- K (24 h): 4.7 meq/L
- LDH (24 h): 188.8 IU/L
- Na (24 h): 141.6 meq/L
- PL (24 h): 181.2 mg/dL
- RALB (24 h): 2.8 g/dL
- TBIL (24 h): 0 mg/dL
- TC (24 h): 92 mg/dL
- TG (24 h): 209.4 mg/dL
- TP (24 h): 5.5 g/dL
- gamma-GTP (24 h): 0.9 IU/L
